Assay results taken from US20040191842A1, “Chemopreventive and therapeutic aspects of polyphenolic compositions and assays” (Medical College of Georgia Research Institute, Inc., priority 2002, published 2004).

How the values were obtained:
p57 (KIP2) [1] = assay: Western blot of p57 in OSC2 oral carcinoma cells; assay type: cell-based, human
Experimental: Cell treatments. For 24 hours treatments, exponentially growing cells with 40% confluency (to minimize differentiation and spontaneous apoptosis) were either maintained in 50 μM EGCG (2.29 mg/100 ml) or 0.2 mg/ml of GTPPs in tissue culture flasks (25 cm^2). Control flasks contained cells without any treatment. To test whether BaP or NNK interfere with the induction of p57, the human keratinocytes were treated with 0.12 μM BaP, or 10 μM NNK, either alone or in combination with 50 μM EGCG. To examine the time course of p57 induction, cells were treated with 50 μM EGCG and harvested for Western analysis at 30 minutes, 2 hours, 6 hours, and 24 hours. The human keratinocytes were treated when the cell density reached 85-90% confluency (to mimic the epithelium).
In a parallel series of experiments, treatment with EGCG was performed with 30 micrograms per milliliter (μg/ml) cycloheximide added to the keratinocyte media 30 minutes prior to the addition of EGCG. The dose-response experiments were performed using EGCG concentrations at 30, 50 100, and 200 μM in the culture media for 24 hours.
Western blot analysis. […] The concentration of protein in each sample was determined using the BioRad DC Protein Assay and spectrophotometry. […]

[2] = as stated in Example 9; read-out: Cmax in the plasma; cited from earlier work
p57 (KIP2) [3] = assay: Western blot of p57 in SCC25 oral carcinoma cells; assay type: cell-based, human; conditions: 50 μM EGCG or 0.2 mg/ml GTPPs, 24 h
Experimental: Western blot analysis. Cells from different treatment groups were lysed in RIPA buffer (1% NP-40, 1% sodium deoxycholate, 0.1% SDS, 0.15 M NaCl, 0.01 M sodium phosphate, pH 7.2, and 1% Trasylol) containing proteinase inhibitors (1 mM PMSF, 1 μg/ml each of aprotinin, leupeptin, and pepstatin). The concentration of protein in each sample was determined using the BioRad DC Protein Assay and spectrophotometry. Fifty micrograms (μg) of protein from each sample and a BioRad molecular weight standard marker were run on a 10% SDS-PAGE, followed by transfer to nitrocellulose membranes. […]

OSC2 cells = assay: BrdU incorporation assay, OSC2 (OSC-2) cells; assay type: cell-based, human
Experimental: DNA synthesis analysis using BrdU incorporation method. The BrdU cell proliferation kit was purchased from Oncogene Research Products, Boston, Mass. Cells were culture in 96 well plates with 10^4 cells/well. After EGCG and GTPPs treatments, cells were labeled by BrdU, reacted with BrdU antibody and the color reaction was carried out according to the protocol provided by the manufacturer. The coloration was measure by a Thermo MAX microplate reader using wavelengths 450 nm-562 nm.
DNA synthesis assay. DNA synthesis was analyzed by a BrdU Cell Proliferation Assay Kit (Oncogene Research Products, Boston, Mass.). […] After the treatment, cells were labeled with BrdU for 2 hours at 37° C. and reacted with anti-BrdU antibody. Unbound antibody in each well was removed by rinsing, and horseradish peroxidase-conjugated goat anti-mouse antibody was added to each well. The color reaction was visualized according to the protocol provided by the manufacturer.
DNA synthesis assay. DNA synthesis was analyzed by a BrdU cell proliferation assay kit (Oncogene Research Products, Boston, Mass.). […] After the treatment, cells were labeled with BrdU for 2 hours at 37° C. and reacted with anti-BrdU antibody. Unbound antibody in each well was removed by rinsing, and horseradish peroxidase-conjugated goat anti-mouse IgG antibody was added to each well. The color reaction to visualize the secondary antibody was carried out according to the protocol provided by the manufacturer.

OSC-4 cells = assay: Intracellular ROS levels (DFDA assay), OSC-4 cells; assay type: cell-based, human; conditions: for intracellular ROS levels vs control: 120 minute time point
Experimental: (§1) Measurement of intracellular ROS levels. The ROS assay measures the accumulation of intracellular ROS levels. The non-fluorescent dye DFDA passively diffuses into cells, where the acetates are cleaved by intracellular esterases. […] Thus, values of the fluorescence in the cell cultures are constantly rising in this assay. Cells (1.5×10^4 cells/well) were incubated with Hallam's physiological saline (HPS) containing DFDA (10 μM) in a 96-well microplate for 30 minutes at 37° C. After the incubation, cells were washed three times with HPS and then incubated with HPS containing EGCG (15-200 μM) or diamide (5 mM) for the indicated time periods. The intracellular ROS levels were measured by using a fluorescence plate reader (BIO-TEK FL600, Bio-Tek Instruments, Inc., Winooski, Vt.), at an excitation wavelength of 485 nm and an emission wavelength of 530 nm.
as §1, with “assay (DFDA assay)” for “assay”, “dye dichlorofluorescein diacetate (DFDA)” for “dye DFDA”, “this assay due to the accumulation of ROS.” for “this assay.”, “EGCG (50-200” for “EGCG (15-200”, “indicated times.” for “indicated time periods.”

O=C(O[C@@H]1Cc2c(O)cc(O)cc2O[C@@H]1c1cc(O)c(O)c(O)c1)c1cc(O)c(O)c(O)c1 [EGCG, (−)-epigallocatechin-3-gallate]
p57 levels (p57 (KIP2) [1]; 50 μM EGCG or 0.2 mg/ml GTPPs, 24 h): remained unchanged
p57 expression, time course and dose response (p57 (KIP2) [1]; EGCG at any time point or concentration): failed to elevate p57 expression
Cmax [2]: 10 µM
p57 levels (p57 (KIP2) [3]): remained unchanged
BrdU incorporation, of control levels (OSC2 cells; 200 μM EGCG): approximately 75%
reduction of BrdU incorporation (OSC2 cells; 200 μM EGCG, 24-hour period): approximately 25%
BrdU incorporation (OSC2 cells; EGCG concentrations reached 50 μM, or GTPPs): ceased BrdU incorporation
intracellular ROS levels vs controls (OSC-4 cells; 50 μM EGCG, 60 minute exposure): remained comparable to the controls
intracellular ROS levels vs control (OSC-4 cells; 50 μM EGCG): ROS levels identical to the control cells
intracellular ROS levels vs control (OSC-4 cells; 200 μM EGCG): remained higher than the control cells
time at which rate of ROS production peaked (OSC-4 cells; EGCG): 60 min
H2O2 concentration producing ROS equivalent to 200 μM EGCG (OSC-4 cells; first hour): 100 µM
